ChEMBL document CHEMBL4265941, “Side effects of methotrexate therapy for rheumatoid arthritis: A systematic review” (Eur J Med Chem, 2018)

Legend:
Format in all cases: ADME, organism-based
[1] = Tmax in RA patient at 7.5 to 25 mg, po; conditions: human, in vivo
[2] = Tmax in RA patient at 7.5 to 25 mg, im; conditions: human, in vivo
[3] = Oral bioavailability in human; conditions: in vivo

Tmax [1]: 1.5 h
Tmax [2]: 1.3 h
bioavailability [3]: 50 to 80%
Compound: CN(Cc1cnc2nc(N)nc(N)c2n1)c1ccc(C(=O)N[C@@H](CCC(=O)O)C(=O)O)cc1 [METHOTREXATE]
